Assay results reported in patent US20090123389A1, “Methods for modulating Th17 cell development in the treatment and prevention of cellulite” (priority 2007, published 2009).
Several values for one entry are separate records, joined by “and”; a condition that tells them apart may be missing. Identical values can stand only once. Like-named read-outs stand apart in the source and are kept apart here.

Key:
fibroblasts = assay: Protein synthesis, proliferation and death of cultured fibroblasts; assay type: cell-based
[1] = test system: human memory T cells (CD4+ CD45RO+); assay: IL-17 and IFNγ expression by human memory T cells co-cultured with monocytes; assay type: cell-based; conditions: 100 nM HF, 6 days
Experimental: FIG. 10F is an illustration depicting purified primary human memory T cells (CD4^+ CD45RO^+) activated by anti-CD3/anti-CD28 coated beads in co-culture with CD14^+ monocytes and treated with DMSO, 100 nM HF or 100 nM MAZ1310. T cells were expanded for 6 days and intracellular cytokine expression was determined following restimulation with PMA plus ionomycin in the presence of brefeldin A.
Human T cell isolation and activation: Resting CD4^+ T cells were isolated from PBMC of healthy human donors using Dynal CD4 Positive Isolation Kit (Invitrogen, Carlsbad, Calif.) as previously described (M. Sundrud et al., Blood 106, 3440, 2005). CD4^+ cells were further purified to obtain memory T cells by staining with PE-conjugated anti-human CD45RO-PE antibodies (BD Biosciences), and sorting on a FACSAria cytometer (BD Biosciences). Following purification, cells were greater than 99% CD4^+ CD45RO^+. […] T cells were expanded in the presence HF or MAZ1310 as indicated for 6 days and intracellular cytokine expression was determined by intracellular staining.
Detection of cytokine production: Cytokines secreted into media supernatant were measured using the mouse Th1/Th2 cytometric bead array (CBA, BD Pharmingen) in accordance with manufacturers instructions. […]

CD4+ CD25− T cells = assay: Th17 differentiation / IL-17 expression of activated CD4+ CD25− T cells (TGFβ plus IL-6); assay type: cell-based, mouse; conditions: for IC50: Mus musculus, T-cell
Experimental: Low doses of halofuginone (HF) were tested to determine the ability of HF to enhance Treg differentiation, while suppressing Th17 differentiation. Naïve CD4+ T cells (CD4+ CD25−) were isolated from the spleen and peripheral lymph nodes of C57B/6 mice. T cells were then activated using anti-CD3 (0.3 μg/ml) and anti-CD28 (0.5 μg/ml) antibodies either in media alone (row 1, 4), TGFβ alone (3 ng/ml—row 2, 5) or TGFβ (3 ng/ml) plus IL-6 (30 ng/ml) (row 3, 6). […] T cells were cultured for 3 days and CD25 and Foxp3 expression (Treg marker genes) was determine by FACS staining and flow cytometric analyses. Simultaneously, T cells were harvested and re-stimulated for 4 hours using phorbol myristic acetate (PMA; 10 nM), Ionomycin (1 μM) and cytokine secretion was prevented using brefeldin A (20 μg/ml). Following stimulation, the production of IL-17 and IFNγ were determined by intracellular staining and analyzed via flow cytometry.
The dose-response of HF on CD4+ T cell proliferation, activation (i.e. CD25 upregulation) and differentiation to Th1, Th2 and Th17 lineages were evaluated. Purified murine naïve CD4+ CD25− T cells were activated using anti-CD3 (0.3 μg/ml) and anti-CD28 (0.5 μg/ml) antibodies and varying amounts of HF was added to each T cell culture condition (1.25 nM-40 nM). CD4+ T cell proliferation was monitored by CFSE dilution on day 3-post activation and CD25 expression was evaluated by FACS staining 2 days after activation. For T cell differentiation experiments, naïve T cells were activated as above in the presence of Th1 (IL-12 (20 ng/ml) plus anti-IL-4 (1.5 μg/ml)), Th2 (IL-4 (50 ng/ml) plus anti-IFNγ (0.5 mg/ml)) or Th17 (TGFβ (3 ng/ml) plus IL-6 (30 ng/ml)) polarizing conditions plus titrating amounts of HF (1.25 nM-40 nM) or MAZ1310 (40 nM). […] All cytokine expression was determined by intracellular staining following PMA+Ionomycin+Brefeldin A re-stimulation and all data was normalized to control (MAZ1310)-treated cells. […] Biol., vol. 80:1-8 (2006).
Cytokines, antibodies and T cell culture: Purified CD4^+ CD25^− T cells were activated in vitro as previously described (I. M. Djuretic et al., Nat Immunol 8, 145 (2007)) using 0.3 μg/ml hamster anti-mouse CD3 (clone 145-2C11) (ATCC—Manassas, Va.) and 0.5 μg/ml hamster anti-mouse CD28 (BD Pharmingen, San Jose, Calif.). Activated cell cultures were differentiated using the following combinations of cytokines and antibodies: iTreg=recombinant human TGFβ1 (3 ng/ml; R&D systems, Minneapolis, Minn.), Th17=TGFβ1 (3 ng/ml) plus recombinant mouse IL-6 (30 ng/ml, R&D systems). Th1 and Th2 differentiation was performed as previously described. (I. M. Djuretic et al., Nat Immunol 8, 145 (2007)). Human IL-2 supernatant (National Cancer Institute) was used in culture at 0.01 U/ml and was added at 48 hours-post activation when T cells were split into tissue culture wells lacking CD3 and CD28 antibodies, with the exception of Th17 cultures that were maintained in the absence of IL-2. All reagents were added at the time of T cell activation and again at 48-hours post activation unless indicated otherwise. For some experiments, purified CD4^+ CD25^− T cells, CD8^+ T cells or B cells were labeled with 1 μM CFSE (Invitrogen) prior to activation in accordance with manufacturers instructions.
MAZ1310 was generated by chemical derivatization of halofuginone and was used at equal concentrations as a negative control.

## O=C(CC1NCCCC1O)Cn1cnc2cc(Br)c(Cl)cc2c1=O (racemic) [HF, 7-bromo-6-chloro-3-[3-(3-hydroxy-2-piperidinyl)-2-oxopropyl]-4(3H)-quinazolinone]
fibroblasts
  concentrations that inhibit protein synthesis and cell proliferation of fibroblasts in culture: over 80 nM
fibroblasts; over a period of 5 days
  doses that do not cause death of cultured fibroblasts: up to 500 nM
[1]
  IFNγ expression by human T cells: essentially unaffected
  percentage of human T cells expressing IL-17 and amount of IL-17 produced: greatly reduced
CD4+ CD25− T cells
  IL-17 expression in cultures where IFNγ and IL-4 were blocked by neutralizing antibodies: reduced IL-17 expression
CD4+ CD25− T cells; 10 nM HF added at different times after activation
  window of HF addition at start of culture giving most pronounced inhibition of IL-17 expression: 12 h
CD4+ CD25− T cells; 10 nM HF, TGFβ plus IL-6
  IL-17 expression in T cells lacking Foxp3: strongly repressed
  Th17 differentiation of T cells expressing STAT3C: remained capable of differentiating into Th17 cells
CD4+ CD25− T cells; 10 nM HF, Th17 conditions, 4 days
  Il17 and Il17f mRNA expression: impaired expression
CD4+ CD25− T cells; 96 h, percentage of IL-17+ IFNγ− cells after restimulation on day 4-5, read-out: IC50 of repression of Th17 differentiation
  IC50: 3.6 nM
CD4+ CD25− T cells; in vitro, read-out: 50% inhibition of Th17 cell development
  IC50: 2 to 3 nM
CD4+ CD25− T cells; TAT-Cre treated T cells, TGFβ plus IL-6
  Th17 differentiation of cells expressing YFP or no transgene: strongly impaired
CD4+ CD25− T cells; TGFβ/IL-6 treated T-cells
  HF concentration that inhibited expression of IL-17: 2.5 to 10 nM and 2.2 to 10 nM
CD4+ CD25− T cells; low concentrations of HF (1-10 nM)
  IL-17 production: strongly reduced
CD4+ CD25− T cells; versus proliferation and Th1 or Th2 differentiation
  fold lower doses for effects on Th17 differentiation than for general inhibition of T-cell proliferation and differentiation: 5- to 10 fold and ~10 fold
